From ChEMBL document CHEMBL5465560, “Selectivity Literature for EUbOPEN Chemogenomic Library” (2024)
One block for each molecule: values may come before it.

Experiments:
[1] = biological target: Microtubule-associated serine/threonine-protein kinase 1 (Homo sapiens) (UniProt Q9Y2H9); test: Selectivity interaction (KinomeScan (DiscoverX)) EUB0000607a MAST1; conditions: at 10 µM
[2] = biological target: Myosin light chain kinase, smooth muscle (Homo sapiens, UniProt Q15746); test: Selectivity interaction (Upstate Kinase Profiler service (Millipore)) EUB0000056c MYLK; conditions: at 1 µM
[3] = biological target: Calcium/calmodulin-dependent protein kinase type 1 (Homo sapiens) (UniProt Q14012); conditions: at 10 µM
Calcium/calmodulin-dependent protein kinase type 1 (Homo sapiens), sequence (Q14012 whole entry, looked up): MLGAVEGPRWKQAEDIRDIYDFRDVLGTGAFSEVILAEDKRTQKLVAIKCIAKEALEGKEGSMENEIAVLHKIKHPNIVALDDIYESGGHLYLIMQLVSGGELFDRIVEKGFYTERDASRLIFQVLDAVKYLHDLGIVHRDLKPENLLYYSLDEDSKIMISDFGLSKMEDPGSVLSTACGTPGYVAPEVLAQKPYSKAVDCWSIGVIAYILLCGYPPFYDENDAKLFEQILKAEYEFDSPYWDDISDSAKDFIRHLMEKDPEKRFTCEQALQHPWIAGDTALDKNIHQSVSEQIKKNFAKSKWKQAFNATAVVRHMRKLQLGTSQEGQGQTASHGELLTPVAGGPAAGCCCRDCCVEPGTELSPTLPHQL

[4] = biological target: Serine/threonine-protein kinase 16 (Homo sapiens, UniProt O75716); test: Selectivity interaction (ActivX KiNativ screen (kinase selectivity in THP-1 cell lysates)) EUB0000639a STK16; type: subcellular; conditions: lysate, at 0.01 µM
Serine/threonine-protein kinase 16, sequence (O75716 whole entry): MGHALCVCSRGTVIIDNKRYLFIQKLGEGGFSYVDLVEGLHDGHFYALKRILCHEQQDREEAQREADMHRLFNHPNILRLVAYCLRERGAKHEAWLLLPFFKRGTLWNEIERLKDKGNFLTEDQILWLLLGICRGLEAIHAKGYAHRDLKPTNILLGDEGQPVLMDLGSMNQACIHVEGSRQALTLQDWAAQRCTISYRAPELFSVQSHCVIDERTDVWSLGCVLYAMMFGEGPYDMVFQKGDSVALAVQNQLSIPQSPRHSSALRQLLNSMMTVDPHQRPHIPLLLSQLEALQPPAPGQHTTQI

[5] = biological target: Protein arginine N-methyltransferase 6 (Homo sapiens, UniProt Q96LA8); test: Selectivity interaction (Methyltransferase screen (Scintillation proximity assays)) EUB0000255b PRMT6
Protein arginine N-methyltransferase 6, sequence (Q96LA8 whole entry, looked up): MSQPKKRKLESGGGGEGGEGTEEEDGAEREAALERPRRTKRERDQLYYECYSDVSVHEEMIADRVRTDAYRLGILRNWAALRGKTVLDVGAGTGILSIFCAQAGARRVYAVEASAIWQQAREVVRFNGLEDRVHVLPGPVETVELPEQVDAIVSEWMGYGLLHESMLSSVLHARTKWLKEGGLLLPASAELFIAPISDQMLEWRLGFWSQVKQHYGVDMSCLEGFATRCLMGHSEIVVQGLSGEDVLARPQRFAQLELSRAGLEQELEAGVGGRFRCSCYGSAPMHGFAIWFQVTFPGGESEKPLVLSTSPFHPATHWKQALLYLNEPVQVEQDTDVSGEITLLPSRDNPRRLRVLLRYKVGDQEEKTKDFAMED

[6] = biological target: T1, Activin receptor type-1 (Homo sapiens) (UniProt Q04771); test: Selectivity interaction (ProQinase) EUB0000171b ACVR1
T1 sequence (whole entry): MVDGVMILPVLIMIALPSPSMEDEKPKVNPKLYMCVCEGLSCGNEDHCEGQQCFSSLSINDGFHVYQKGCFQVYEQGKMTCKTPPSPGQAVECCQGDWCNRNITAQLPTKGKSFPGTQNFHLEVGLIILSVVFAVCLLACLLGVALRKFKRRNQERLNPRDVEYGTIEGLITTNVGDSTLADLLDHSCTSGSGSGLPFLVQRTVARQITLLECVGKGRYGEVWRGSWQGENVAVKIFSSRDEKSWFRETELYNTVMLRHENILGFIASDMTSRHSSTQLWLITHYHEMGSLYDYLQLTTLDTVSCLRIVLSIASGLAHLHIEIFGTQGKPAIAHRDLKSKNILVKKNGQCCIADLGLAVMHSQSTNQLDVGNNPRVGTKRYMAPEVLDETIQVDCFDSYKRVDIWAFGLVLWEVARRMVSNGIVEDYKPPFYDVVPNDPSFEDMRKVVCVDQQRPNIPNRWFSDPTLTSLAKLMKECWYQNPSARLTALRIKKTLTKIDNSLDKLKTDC

[7] = biological target: cAMP-dependent protein kinase catalytic subunit alpha (Homo sapiens, UniProt P17612); test: Selectivity interaction (Kinase counterscreening (biochemical assay)) EUB0000604a PRKACA
[8] = biological target: Vascular endothelial growth factor receptor 1 (Homo sapiens) (UniProt P17948); test: Selectivity interaction (KinomeScan (DiscoverX)) EUB0001079a FLT1; conditions: at 1 µM
Vascular endothelial growth factor receptor 1 (Homo sapiens), sequence (P17948 whole entry): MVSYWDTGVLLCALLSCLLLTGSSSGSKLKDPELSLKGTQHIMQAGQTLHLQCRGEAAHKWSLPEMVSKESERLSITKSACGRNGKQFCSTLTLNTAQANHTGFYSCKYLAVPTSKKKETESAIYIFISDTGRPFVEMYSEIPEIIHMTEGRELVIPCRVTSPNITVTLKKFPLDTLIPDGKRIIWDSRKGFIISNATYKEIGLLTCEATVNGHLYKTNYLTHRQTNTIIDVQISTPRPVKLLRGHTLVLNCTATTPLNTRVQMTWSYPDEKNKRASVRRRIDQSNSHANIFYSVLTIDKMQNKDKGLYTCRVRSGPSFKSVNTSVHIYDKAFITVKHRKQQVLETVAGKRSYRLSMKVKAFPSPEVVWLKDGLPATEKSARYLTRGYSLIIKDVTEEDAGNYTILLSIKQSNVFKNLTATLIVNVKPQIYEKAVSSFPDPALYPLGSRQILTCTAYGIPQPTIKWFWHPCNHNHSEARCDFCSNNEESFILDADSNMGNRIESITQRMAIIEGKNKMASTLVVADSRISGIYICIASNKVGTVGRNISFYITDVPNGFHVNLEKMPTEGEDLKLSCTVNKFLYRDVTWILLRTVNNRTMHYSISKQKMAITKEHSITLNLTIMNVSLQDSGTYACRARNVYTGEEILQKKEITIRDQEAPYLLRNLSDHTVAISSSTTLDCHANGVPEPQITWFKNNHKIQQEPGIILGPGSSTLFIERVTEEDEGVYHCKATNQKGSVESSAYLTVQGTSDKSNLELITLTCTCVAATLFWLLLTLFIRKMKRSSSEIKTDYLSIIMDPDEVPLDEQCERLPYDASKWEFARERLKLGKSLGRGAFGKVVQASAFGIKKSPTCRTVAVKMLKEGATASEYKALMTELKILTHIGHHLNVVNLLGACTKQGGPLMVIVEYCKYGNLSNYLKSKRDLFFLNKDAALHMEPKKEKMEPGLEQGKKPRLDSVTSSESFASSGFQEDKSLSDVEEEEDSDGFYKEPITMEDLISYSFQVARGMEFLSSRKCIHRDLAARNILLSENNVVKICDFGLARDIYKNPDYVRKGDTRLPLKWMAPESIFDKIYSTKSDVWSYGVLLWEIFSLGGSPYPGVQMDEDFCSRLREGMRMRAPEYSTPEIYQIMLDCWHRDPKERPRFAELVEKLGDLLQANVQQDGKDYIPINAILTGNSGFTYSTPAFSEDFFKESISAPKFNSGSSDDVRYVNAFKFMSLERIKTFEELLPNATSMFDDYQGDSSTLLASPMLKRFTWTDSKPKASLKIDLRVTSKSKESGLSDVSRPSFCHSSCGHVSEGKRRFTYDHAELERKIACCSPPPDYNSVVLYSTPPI

SRSF protein kinase 1 = SRSF protein kinase 1 (Homo sapiens, UniProt Q96SB4); test: Selectivity interaction (KinomeScan (DiscoverX)) EUB0001079a SRPK1; conditions: at 1 µM
SRSF protein kinase 1, sequence (Q96SB4 whole entry): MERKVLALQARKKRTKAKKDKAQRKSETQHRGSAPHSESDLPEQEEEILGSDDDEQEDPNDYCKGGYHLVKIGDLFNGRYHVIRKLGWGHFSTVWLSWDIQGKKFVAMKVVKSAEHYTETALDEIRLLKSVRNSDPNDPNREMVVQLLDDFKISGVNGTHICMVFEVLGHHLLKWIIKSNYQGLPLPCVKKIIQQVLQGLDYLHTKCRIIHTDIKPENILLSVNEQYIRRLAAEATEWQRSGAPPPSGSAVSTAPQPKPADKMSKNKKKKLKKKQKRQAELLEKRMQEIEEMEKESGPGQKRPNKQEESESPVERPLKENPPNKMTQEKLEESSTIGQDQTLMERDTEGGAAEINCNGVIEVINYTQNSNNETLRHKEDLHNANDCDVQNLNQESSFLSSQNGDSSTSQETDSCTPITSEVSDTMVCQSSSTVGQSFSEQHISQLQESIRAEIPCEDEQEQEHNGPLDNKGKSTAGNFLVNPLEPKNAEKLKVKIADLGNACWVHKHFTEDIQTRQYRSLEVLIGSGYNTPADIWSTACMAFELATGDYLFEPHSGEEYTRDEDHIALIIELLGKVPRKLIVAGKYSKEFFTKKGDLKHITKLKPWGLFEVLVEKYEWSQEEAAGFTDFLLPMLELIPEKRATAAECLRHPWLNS

[9] = biological target: T2, Mitogen-activated protein kinase kinase kinase 5 (Homo sapiens) (UniProt Q99683); test: Selectivity interaction (KinomeScan (DiscoverX)) EUB0001619a MAP3K5; conditions: at 1 µM
T2 sequence (whole entry): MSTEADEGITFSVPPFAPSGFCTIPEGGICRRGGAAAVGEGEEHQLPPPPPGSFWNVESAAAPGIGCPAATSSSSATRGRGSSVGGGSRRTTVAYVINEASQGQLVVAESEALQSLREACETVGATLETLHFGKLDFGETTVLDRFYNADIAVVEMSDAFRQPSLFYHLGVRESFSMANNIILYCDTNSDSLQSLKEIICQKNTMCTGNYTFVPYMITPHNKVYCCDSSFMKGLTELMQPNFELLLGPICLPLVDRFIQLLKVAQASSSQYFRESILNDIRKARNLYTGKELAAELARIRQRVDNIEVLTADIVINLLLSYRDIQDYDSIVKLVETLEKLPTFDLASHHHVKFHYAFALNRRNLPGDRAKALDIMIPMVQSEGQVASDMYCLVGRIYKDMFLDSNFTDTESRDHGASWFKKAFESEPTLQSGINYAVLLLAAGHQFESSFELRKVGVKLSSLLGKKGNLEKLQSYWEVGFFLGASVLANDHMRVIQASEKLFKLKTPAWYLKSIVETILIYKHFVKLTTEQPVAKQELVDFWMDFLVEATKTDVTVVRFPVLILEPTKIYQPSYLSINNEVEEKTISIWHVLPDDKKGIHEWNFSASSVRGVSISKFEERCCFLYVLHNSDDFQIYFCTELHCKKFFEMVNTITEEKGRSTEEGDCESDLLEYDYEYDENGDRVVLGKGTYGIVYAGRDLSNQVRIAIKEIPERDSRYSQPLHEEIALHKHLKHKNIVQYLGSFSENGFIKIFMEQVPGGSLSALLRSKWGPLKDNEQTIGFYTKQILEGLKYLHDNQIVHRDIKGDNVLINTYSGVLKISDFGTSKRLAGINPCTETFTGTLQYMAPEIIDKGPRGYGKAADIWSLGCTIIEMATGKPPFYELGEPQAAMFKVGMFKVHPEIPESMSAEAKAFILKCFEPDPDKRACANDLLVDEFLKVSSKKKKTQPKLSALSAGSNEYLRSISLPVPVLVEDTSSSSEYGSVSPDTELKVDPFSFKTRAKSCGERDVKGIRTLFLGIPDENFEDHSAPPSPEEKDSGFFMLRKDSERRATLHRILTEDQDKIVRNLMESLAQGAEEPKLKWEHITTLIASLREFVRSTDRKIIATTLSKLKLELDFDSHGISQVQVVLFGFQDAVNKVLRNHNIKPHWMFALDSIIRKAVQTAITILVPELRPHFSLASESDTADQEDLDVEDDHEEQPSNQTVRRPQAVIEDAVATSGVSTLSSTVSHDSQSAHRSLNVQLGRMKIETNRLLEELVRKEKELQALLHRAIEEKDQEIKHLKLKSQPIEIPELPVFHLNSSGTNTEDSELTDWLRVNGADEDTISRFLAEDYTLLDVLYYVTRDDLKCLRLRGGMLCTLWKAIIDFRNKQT

Microtubule-associated serine/threonine-protein kinase 1 (Homo sapiens), sequence (Q9Y2H9 whole entry, looked up): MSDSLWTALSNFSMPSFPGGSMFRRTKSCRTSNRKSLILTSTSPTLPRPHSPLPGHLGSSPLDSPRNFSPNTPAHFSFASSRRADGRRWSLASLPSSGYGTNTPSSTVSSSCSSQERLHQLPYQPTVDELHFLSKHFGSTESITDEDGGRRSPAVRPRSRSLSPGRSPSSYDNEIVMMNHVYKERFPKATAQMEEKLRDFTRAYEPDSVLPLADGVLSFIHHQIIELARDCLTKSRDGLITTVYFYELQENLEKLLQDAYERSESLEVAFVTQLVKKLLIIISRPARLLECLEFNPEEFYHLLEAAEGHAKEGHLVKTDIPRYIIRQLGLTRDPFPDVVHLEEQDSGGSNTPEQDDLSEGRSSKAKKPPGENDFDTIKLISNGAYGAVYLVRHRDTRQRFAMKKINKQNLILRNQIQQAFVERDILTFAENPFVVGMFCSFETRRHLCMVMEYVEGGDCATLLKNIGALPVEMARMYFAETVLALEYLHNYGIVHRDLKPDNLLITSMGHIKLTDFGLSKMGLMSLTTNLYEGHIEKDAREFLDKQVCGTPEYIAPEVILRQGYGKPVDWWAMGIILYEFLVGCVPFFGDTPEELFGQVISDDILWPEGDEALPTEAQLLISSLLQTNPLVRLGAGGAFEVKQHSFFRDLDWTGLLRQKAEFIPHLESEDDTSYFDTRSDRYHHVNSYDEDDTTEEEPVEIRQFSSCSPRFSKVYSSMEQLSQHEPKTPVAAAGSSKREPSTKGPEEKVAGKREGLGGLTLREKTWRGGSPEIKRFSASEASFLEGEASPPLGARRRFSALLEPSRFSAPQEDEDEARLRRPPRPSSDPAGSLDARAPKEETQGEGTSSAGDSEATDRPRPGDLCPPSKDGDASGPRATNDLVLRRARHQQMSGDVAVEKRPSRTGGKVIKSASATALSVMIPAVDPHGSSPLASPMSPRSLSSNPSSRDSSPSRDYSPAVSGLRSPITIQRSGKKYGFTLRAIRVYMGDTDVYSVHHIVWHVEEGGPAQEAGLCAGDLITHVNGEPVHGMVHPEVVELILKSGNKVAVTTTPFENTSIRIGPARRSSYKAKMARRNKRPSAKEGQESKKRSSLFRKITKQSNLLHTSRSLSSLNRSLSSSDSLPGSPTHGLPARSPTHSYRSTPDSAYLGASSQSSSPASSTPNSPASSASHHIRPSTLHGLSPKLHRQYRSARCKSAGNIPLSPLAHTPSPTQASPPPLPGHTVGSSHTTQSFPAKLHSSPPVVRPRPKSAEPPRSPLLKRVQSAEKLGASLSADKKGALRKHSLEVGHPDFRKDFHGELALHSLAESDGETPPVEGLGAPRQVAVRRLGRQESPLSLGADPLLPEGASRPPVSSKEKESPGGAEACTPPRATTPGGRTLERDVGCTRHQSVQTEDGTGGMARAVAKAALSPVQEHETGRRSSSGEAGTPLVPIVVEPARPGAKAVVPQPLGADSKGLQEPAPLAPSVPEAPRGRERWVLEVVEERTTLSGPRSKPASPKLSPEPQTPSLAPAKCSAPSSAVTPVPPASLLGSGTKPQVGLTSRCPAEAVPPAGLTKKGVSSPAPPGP

SMILES: CNC(=O)Nc1ccc(-c2nc(N3CC4CCC(C3)O4)c3cnn(C4CCC5(CC4)OCCO5)c3n2)cc1
% of control [1]: 95%

% of inhibition [2]: 1%
SMILES: Cc1ccc(-c2ccc3c(ccc4sc5c(c43)NC[C@@H](C)NC5=O)n2)cn1

% of control [3]: 100%
SMILES: CCN(CC)CCCCNc1ncc2cc(-c3cc(OC)cc(OC)c3)c(NC(=O)NC(C)(C)C)nc2n1

% of inhibition [4]: 21.2%
SMILES: CC[C@@H]1[C@H](F)C(=O)N[C@@H]1COc1nccc2cc(C(N)=O)c(OC)cc12 [ZIMLOVISERTIB]

SMILES: COCCN1CCC(c2cc(CN(C)C(=O)c3cccc(Oc4ccccc4)c3)ccn2)CC1
% activity ([5]; at 1 µM): 17%
% activity ([5]; at 10 µM): > 90%

% of control ([6]; at 1 µM): 85%
% of control ([6]; at 5 µM): 54%
SMILES: C=CC(=O)Nc1cccc(C(=O)Nc2ccc(Nc3cc(-c4[nH]c(SC)nc4C)ccn3)cc2)c1

SMILES: Cc1cnc(Nc2ccc(F)cc2Cl)nc1-c1c[nH]c(C(=O)N[C@H](CO)c2cccc(Cl)c2)c1
Ki [7]: > 4 µM

SMILES: Nc1cnc(N2CCc3cc(S(=O)(=O)Nc4c(F)cc(Cl)cc4F)cc(N4CCCC4=O)c32)nc1 [TP-020n]
% of control [8]: 93%
% of control (SRSF protein kinase 1): 81%

SMILES: N#Cc1cccc(-c2c[nH]c3ncnc(N4CCOCC4)c23)c1
% of control [9]: 26%
